Experimental data from patent US8497260B2, “2-arylbenzothiophene derivatives or pharmaceutically acceptable salts thereof, preparation method thereof, and pharmaceutical composition for the diagnosis or treatment of degenerative brain disease containing the same as active ingredient” (Industry-University Cooperation Foundation Sogang University, priority 2009, dated 2013).
pKd: −log10 of the molar value.

Target: T1, β-amyloid (Aβ1-42) fibrils (Homo sapiens, UniProt P05067)
T1 construct: β-Amyloid peptide (Aβ1-42, 1 mg, Bachem); purchased Bachem
Test: Dissociation constant (Kd) of [125I]TZDM on β-amyloid fibrils
Conditions: Aβ1-42 fibrils 10 nM, 10% ethanol, room temperature 3 hours, nonspecific binding with 2 μM ThT
Procedure: β-Amyloid peptide (Aβ1-42, 1 mg, Bachem) was completely dissolved in 1 mL of DMSO, 9 mL of phosphate buffered saline (PBS) (pH 7.4) was added thereto and well mixed. The resulting mixture was incubated at 37° C. for 60 minutes to form β-amyloid fibrils, 0.5 mL was taken and transferred to each e-tube and placed into a refrigerator maintained at −80° C.
Here, the nonspecific binding was performed using 2 μM Thioflavin T (ThT).

T1 sequence (P05067 672-713 limits assumed): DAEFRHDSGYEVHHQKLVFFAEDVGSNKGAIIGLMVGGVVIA

Q: How did the pKd turn out when `CN(C)c1ccc(-c2nc3ccc([125I])cc3s2)cc1` [[^125I]TZDM, 2-[4-(N,N-dimethylamino)phenyl]-6-[^125I]iodobenzothiazole] was run?
A: 9.89
